Values of other authors, collected in US20220356443A1, “PRODUCTION METHOD FOR CEREBRAL ORGANOID” (KEIO UNIVERSITY, priority 2019, published 2022).

Tested on: deposits of amyloid β peptide
Conditions: relative to thioflavin-T; general statement on the staining reagent

**Q.** With `CNc1ccc(-c2nc3ccccc3s2)cc1` [BTA-1, 2-(4′-methylaminophenyl)benzothiazole] as the molecule, how does the “affinity to deposits of amyloid β peptide, higher than that of thioflavin-T” value read?
**A.** about 50 times
